The record followed here is the supplement of paper PMC10949913.

Holding throughout (assay): area under concentration-response curve (viability) (AUC (a.u.)); higher = less active
Common to all, as to details: 48 h

Test [1] concerns NCI-H295R. A digest of the protocol: (§1)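 Three adrenocortical carcinoma cell lines were seeded at 500–1,000 cells/well in 5 µL medium in 1,536-well plates. 23 nL of each MIPE 5.0 library compound was added at 11 concentrations. After 48 h (per the protocol name), CellTiter-Glo was added for 15 minutes at room temperature and luminescence was read. Signals were normalised per plate to vehicle and empty-well controls. AC50 and area under the curve came from fitted concentration-response curves, keeping only inhibitory or non-responding curve classes.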

Test [2] relates to CU-ACC1. The procedure, abridged: as §1
Test [3] has as its system CU-ACC2. A digest of the protocol:
as §1

In the case of `CCCCCCCc1ccc(CCc2cccc(O)c2C(=O)O)cc1`, the “area under concentration-response curve” value in test [1] came out at 534; in test [2], 515; in test [3], 574.
Regarding `O=C(CCc1ccc(O)cc1)c1c(O)cc(O)cc1O`, the “area under concentration-response curve” value is 585 in test [1], 531 in test [2] and 653 in test [3].
The corresponding values for `CN(CCOc1ccc(CC2SC(=O)NC2=O)cc1)c1ccccn1` (centres undefined) are 576, 515 and 644.
As for `CCCCCN(C)CCC(O)(P(=O)([O-])O)P(=O)(O)O`, the figures for the “area under concentration-response curve” value in test [1], in test [2] and in test [3] were 611, 612 and 590, respectively.
Turning to `CCc1cc(Nc2nccc(-c3c(-c4ccc(OC)c(C(=O)Nc5c(F)cccc5F)c4)nc4ccccn34)n2)c(OC)cc1N1CCC(N2CCN([S+](C)(=O)[O-])CC2)CC1`, the “area under concentration-response curve” value in test [1] amounted to 485; in test [2] it was 509; in test [3] it was 548.
With `CC1=C(CC(=O)O)c2cc(F)ccc2/C1=C\c1ccc([S+](C)[O-])cc1` (centres undefined), the “area under concentration-response curve” value in test [1] was found to be 573; in test [2] it was 526; in test [3] it was 647.
The corresponding values for `CC(=O)[C@H]1CC[C@H]2[C@@H]3C/C=C4/C[C@@H](O)CC[C@]4(C)[C@H]3CC[C@]12C` are 530, 517 and 627.
In the same order, the values of `Cc1ccccc1C(C(=O)NC1CCCCC1)N(C(=O)Cn1ccnc1C)c1cccc(F)c1` (centres undefined) are 539, 519 and 593.
For the compound `CC1=CC2=C(O1)C(=C3OC(=O)\C=C(C)/C3=C2)C`, the “area under concentration-response curve” value in test [1] was 516; in test [2], 482; in test [3], 581.
In the same order, the values of `F\C1=C\N(C2CCCO2)C(=O)NC1=O` (centres undefined) are 511, 512 and 612.
Turning to `NC(=O)c1cccc(-c2cccc(OC(=O)NC3CCCCC3)c2)c1`, the “area under concentration-response curve” value in test [1] is 470; in test [2] it was 480; in test [3], 485.
For the compound `CC(=O)OCC(=O)[C@@]12OC(C)(C)O[C@@H]1C[C@H]3[C@@H]4C[C@H](F)C/5=C/C(=O)/C=C\[C@]5(C)[C@@]4(F)[C@@H](O)C[C@]23C`, the “area under concentration-response curve” value came out at 519 in test [1], 439 in test [2] and 528 in test [3].
The corresponding values for `CC(C)NCC(O)c1ccc(O)c(O)c1` (centres undefined) are 502, 487 and 548.
The corresponding values for `COC1=C(OC)C=C2CN(CCC3=CC=C(C=C3)[N]4N=NC(=N4)C5=CC(=C(OC)C=C5NC(=O)\C6=C\C(=O)C7=CC=CC=C7O6)OC)CCC2=C1` are 688, 735 and 654.
The corresponding values for `NC[C@H]1O[C@H](O[C@H]2[C@H](O)[C@@H](O[C@H]3O[C@H](CO)[C@@H](O)[C@H](N)[C@H]3O)[C@H](N)C[C@@H]2N)[C@H](N)C[C@@H]1O` are 535, 486 and 579.
As to `O=C1NC(=O)/C(=C/c2ccc3c(c2)OC(F)(F)O3)S1`, the entries for the “area under concentration-response curve” value in test [1], in test [2] and in test [3] were 537, 512 and 599, respectively.
In the same order, the values of `CC(C)[C@H]1C(=O)N[C@@H](CCCN=C(N)N)C(=O)NCC(=O)N[C@@H](CC(=O)O)C(=O)N[C@H](Cc2ccccc2)C(=O)N1C` are 601, 443 and 624.
Turning to `CN1CC(=O)\N=C1\NC(=O)NC2=CC(=CC=C2)Cl`, the “area under concentration-response curve” value in test [1] was 486; in test [2] it was 497; in test [3] it was 566.
In the same order, the values of `CN(C(=O)CNC(=O)/C=C/c1cccc(Cl)c1)C1CC[S+](=O)([O-])CC1` (centres undefined) are 465, 479 and 540.
The corresponding values for `C[N]1C=C(C2=CC=CC=C12)/C3=C(/C(=O)NC3=O)C4=C[N](C)C5=CC(=CC=C45)[N+]([O-])=O` are 454, 611 and 608.
The corresponding values for `Oc1ccc(C2CCN(c3ccnc4ccccc34)CC2)cc1O` are 523, 497 and 549.
Consider `C[C@]12CC[C@H]3[C@@H](CCC/4=C/C(=O)CC[C@]34C)[C@@H]1CC[C@@H]2OC(=O)CCC5CCCC5`, for which the “area under concentration-response curve” value in test [1] worked out at 569; in test [2] it was 581; in test [3], 618.
As for `O=C(O)c1ccccc1-c1ccc(/C=c2\sc3nc4cc(Br)cnc4n3c2=O)o1`, the “area under concentration-response curve” value in test [1] was 549; in test [2] it was 491; in test [3] it was 457.
The corresponding values for `Cc1c(-c2ccc(-c3ccccc3F)cc2)nc2ccc(F)cc2c1C(=O)O` are 521, 595 and 620.
Take `C[C@@H](C1CC[C@@]2(O)C3=CC(=O)[C@@H]4C[C@@H](O)[C@@H](O)C[C@]4(C)[C@H]3CC[C@]12C)[C@H](O)CCC(C)(C)O` (some centres undefined): the “area under concentration-response curve” value in test [1] turned out to be 424; in test [2], 411; in test [3], 488.
The corresponding values for `C[N+](C)([O-])CCNc1ccc(NCC[N+](C)(C)[O-])c2c1C(=O)c1c(O)ccc(O)c1C2=O` are 496, 505 and 540.
The corresponding values for `NC[C@H]1O[C@H](O[C@@H]2[C@H](O)[C@@H](O[C@H]3O[C@H](CO)[C@@H](O)[C@H](N)[C@H]3O)[C@H](N)C[C@@H]2N)[C@H](O)[C@@H](O)[C@@H]1O` are 520, 472 and 583.
In the same order, the values of `COC[C@@H](c1ccc(C(F)(F)F)cc1)N1CCN(C2(C)CCN(C(=O)c3c(C)ncnc3C)CC2)C[C@@H]1C` are 513, 501 and 541.
Turning to `O=C([O-])Cc1ccccc1Nc1c(Cl)cccc1Cl`, the “area under concentration-response curve” value is 585 in test [1], 536 in test [2] and 645 in test [3].
In the same order, the values of `N=C1S/C(=C\c2ccc(-c3ccc4c(c3)C(=O)NC4=O)o2)C(=O)N1c1ccc(Br)cc1` are 618, 563 and 675.
Regarding `CN(CC1=CC2=C(N\C(=N/C2=O)C)C=C1)C3=CC=C(S3)C(=O)N[C@@H](CCC(O)=O)C(O)=O`, the “area under concentration-response curve” value in test [1] was 532; in test [2], 503; in test [3], 602.
With `Cc1onc(-c2ccccc2)c1-c1ccc([S+](N)(=O)[O-])cc1`, the results for the “area under concentration-response curve” value in test [1], in test [2] and in test [3] were 535, 457 and 570, respectively.
As to `CC[C@@]1(O)C(=O)OCC/2=C1/C=C/3N(CC4=C(CCNC(C)C)C5=CC=CC=C5N=C34)C2=O`, the “area under concentration-response curve” value in test [1] is 654; in test [2] it was 538; in test [3], 611.
The corresponding values for `Cc1cccc(-c2[nH]c(CNc3ccccc3F)nc2-c2ccc3ncnn3c2)n1` are 463, 483 and 510.
The corresponding values for `CC[C@H](/C=C/[C@@H](C)[C@H]1CC[C@H]2[C@@H]3CC=C4C[C@@H](O)CC[C@]4(C)[C@H]3CC[C@]12C)C(C)C` are 602, 550 and 612.
The corresponding values for `CC[S+](=O)([O-])c1ccc2oc(-c3ccc4ccccc4c3)nc2c1` are 514, 538 and 602.
For `Cc1nc(NC(=O)N2CCC[C@H]2C(N)=O)sc1-c1csc(C(C)(C)C)n1`, the “area under concentration-response curve” value in test [1] came to 377; in test [2] it was 414; in test [3], 445.
The corresponding values for `Cc1nnc(C(C)C)n1C1CC2CCC(C1)N2CC[C@H](NC(=O)C1CCC(F)(F)CC1)c1ccccc1` (some centres undefined) are 559, 561 and 533.
